# What was measured:
# Plasmodium falciparum [1] = assay: Antimalarial activity against ring stage Plasmodium falciparum W2 infected with human red blood cells incubated for 48 hrs by flow cytometry; assay type: functional, organism-based; conditions: W2, 48 h
# Plasmodium falciparum [2] = assay: Antimalarial activity against ring stage Plasmodium falciparum Dd2 infected with human red blood cells incubated for 48 hrs by SYBR Green method; assay type: functional; conditions: Dd2, 48 h
# Plasmodium falciparum [3] = assay: Antimalarial activity against ring stage Plasmodium falciparum 3D7 infected with human red blood cells incubated for 48 hrs by SYBR Green method; assay type: functional, organism-based; conditions: 3D7, 48 h
# [4] = Cytotoxicity against human HepG2A16 cells by MTT assay; assay type: cell-based
# [5] = Selectivity index, ratio of IC50 for human HepG2A16 cells to IC50 for ring stage Plasmodium falciparum W2; assay type: toxicity; conditions: read-out: Ratio IC50
# [6] = n-octanol-phosphate buffer partition coefficient, log D in CH3CN-MeOH-phosphate buffer at pH 5.2 by HPLC-UV analysis; assay type: physicochemical
# [7] = Inhibition of beta-hematin formation after 5 to 6 hrs by pyridine-ferrichrome detergent-mediated assay; assay type: physicochemical
# [8] = n-octanol-phosphate buffer partition coefficient, log D in CH3CN-MeOH-phosphate buffer at pH 7.4 by HPLC-UV analysis; assay type: physicochemical
# Plasmodium falciparum [9] = assay: Ratio of chloroquine IC50 to compound IC50 for ring stage Plasmodium falciparum W2 infected with human red blood cells incubated for 48 hrs by flow cytometry; assay type: functional
# Plasmodium falciparum [10] = assay: Resistance index, ratio of IC50 for ring stage Plasmodium falciparum W2 to IC50 for ring stage Plasmodium falciparum 3D7; assay type: functional
# Plasmodium falciparum [11] = assay: Resistance index, ratio of IC50 for ring stage Plasmodium falciparum Dd2 to IC50 for ring stage Plasmodium falciparum 3D7; assay type: functional
SMILES,IC50 (Plasmodium falciparum [1]) [nM],IC50 (Plasmodium falciparum [2]) [nM],IC50 (Plasmodium falciparum [3]) [nM],logD [6],IC50 [7] [nM],logD [8],IC50 [4] [nM],selectivity ratio [5],Ratio IC50 (Plasmodium falciparum [9]),Ratio IC50 (Plasmodium falciparum [10]),Ratio IC50 (Plasmodium falciparum [11])
CCN(CC)CCNc1c2ccc(Cl)cc2nc2c3cc(Cl)ccc3n(CCN3CCCC3)c12,73,215,245,1,24800,–,7500,103,–,–,–
Clc1ccc2c(NCCN3CCCC3)c3c(nc2c1)c1cc(Cl)ccc1n3CCN1CCCC1,124,452,375,1.05,23400,3,8700,70,–,–,–
CCN(CC)CCCC(C)Nc1ccnc2cc(Cl)ccc12 (centres undefined) [CHLOROQUINE],–,–,–,–,28200,–,–,–,–,–,–
Clc1ccc2c(NCCCN3CCCCC3)c3c(nc2c1)c1ccccc1n3CCN1CCCC1,117,658,535,-0.01,42900,2.8,4300,37,–,–,–
CCN(CC)CCCNc1c2ccc(Cl)cc2nc2c3ccccc3n(CCN3CCOCC3)c12,113,453,320,0.72,26900,–,4600,41,–,–,–
Clc1ccc2c(NCCCN3CCOCC3)c3c(nc2c1)c1ccccc1n3CCN1CCCC1,90,678,469,0.69,32900,–,8600,96,–,–,–
CCN(CC)CCCNc1c2ccc(Cl)cc2nc2c3ccccc3n(CCN3CCCC3)c12,87,455,480,-0.03,21900,1.48,4500,52,–,–,–
Clc1ccc2c(NCCN3CCCC3)c3c(nc2c1)c1ccccc1n3CCN1CCCC1,99,631,468,0.34,79000,2.7,4600,46,–,–,–
CCN(CC)CCNc1c2ccc(Cl)cc2nc2c3ccccc3n(CCN3CCCC3)c12,158,724,656,0.05,98200,3.2,6400,40,–,–,–
CCN(CC)CCOc1cc(Cl)cc2nc3c4cc(Cl)ccc4n(CCN(CC)CC)c3cc12,–,–,–,–,–,–,5300,212,–,0.3,0.3

# More lines, in order of falling IC50 [7], values ahead:
IC50 (Plasmodium falciparum [1]) [nM],IC50 (Plasmodium falciparum [2]) [nM],IC50 (Plasmodium falciparum [3]) [nM],logD [6],IC50 [7] [nM],logD [8],SMILES,IC50 [4] [nM],selectivity ratio [5],Ratio IC50 (Plasmodium falciparum [9]),Ratio IC50 (Plasmodium falciparum [10]),Ratio IC50 (Plasmodium falciparum [11])
95,311,199,1.5,21100,–,CCN(CC)CCCNc1c2ccc(Cl)cc2nc2c3cc(Cl)ccc3n(CCN3CCOCC3)c12,4700,49,–,–,–
77,481,392,0.54,20400,3.23,CCN(CC)CCCNc1c2ccc(Cl)cc2nc2c3cc(Cl)ccc3n(CCN3CCCC3)c12,6000,78,–,–,–
292,572,407,1.5,17400,–,Clc1ccc2c(NCCCN3CCOCC3)c3c(nc2c1)c1cc(Cl)ccc1n3CCN1CCCC1,11900,41,–,–,–
165,683,513,1.79,14300,–,CCN(CC)CCNc1c2ccc(Cl)cc2nc2c3cc(Cl)ccc3n(CCN3CCOCC3)c12,16600,103,–,–,–
97,638,660,0.78,13500,3.1,Clc1ccc2c(NCCCN3CCCCC3)c3c(nc2c1)c1cc(Cl)ccc1n3CCN1CCCC1,5700,59,–,–,–
126,706,456,0.26,10800,–,CCN(CC)CCCC(C)Nc1c2ccc(Cl)cc2nc2c3cc(Cl)ccc3n(CCN3CCCC3)c12 (centres undefined),6500,52,–,–,–
20,314,245,0.1,7900,0.6,CCN(CC)CCCC(C)Nc1c2ccc(Cl)cc2nc2c3ccccc3n(CCN3CCCC3)c12 (centres undefined),2500,125,10,–,–
